Like-named read-outs stand apart in the source and are kept apart here.

One assay deals with wild-type HIV-1 protease (Human immunodeficiency virus type 1 group M subtype B, UniProt P04585). In words: Assay for inhibition of microbial expressed HIV protease. The class given is biochemical. The method, then: Assay for Inhibition of Microbial Expressed HIV Protease
Inhibition studies of the reaction of the protease (which was expressed in Eschericia coli) with a peptide substrate [Val-Ser-Gln-Asn-(betanapthyl)Ala-Pro-Ile-Val]. The inhibitor is first preincubated with the enzyme in assay buffer (50 mM sodium acetate, pH 5.5, 100 mM NaCl, and 0.1% BSA) for 30 minutes at room temperature. Substrate is added to 440 micromolar in a total volume of 80 microliters containing 5 picomolar HIV-1 protease, and the reaction is incubated for 1 hour at 30° C. The reaction is quenched by addition of 120 microliters of 10% phosphoric acid, and product formation is determined after separation of product and substrate on a Vydac C18 column connected to an Alliance high performance liquid chromatography system (Waters Corporation). The extent of inhibition of the reaction is determined from the peak area of the products.

Assay [1] deals with acute HIV infection of T-lymphoid cells. Put plainly: Assay for inhibition of HIV replication (spread assay). The class given is cell-based, HIV-1. The settings on record: Human immunodeficiency virus 1, T-lymphoid. The method, then: • Assay for Inhibition of HIV Replication
Assays for the inhibition of acute HIV infection of T-lymphoid cells were conducted in accordance with Vacca, J. P. et al., Proc. Natl. Acad. Sci. USA 1994, 91: 4096.

Setting [2] is: wild-type HIV-1 protease expressed in E. coli, peptide substrate, pH 5.5, read-out: Enzyme Inhibition - IC50.

`COC(=O)N[C@H](C(=O)N[C@H](CCC[C@@H](CO)N(CC(C)C)S(=O)(=O)c1ccc(N)cc1)C(C)C)C(c1ccccc1)c1ccccc1` [Example D14, N-{(1R,5S)-5-[[(4-aminophenyl)sulfonyl](isobutyl)amino]-6-hydroxy-1-isopropylhexyl}-Nα-(methoxycarbonyl)-β-phenyl-L-phenylalaninamide]: the IC50 (as a rule, the concentration at which inhibition is half-maximal) at wild-type HIV-1 protease (setting [2]) is 0.519 nM. In assay [1] (read-out: Spread - IC95), the 95% effect concentration (IC95) (in general, the point of the concentration-response curve where the effect stands at 95%) was determined as 95 nM.

Consider `CC[C@@H](CCC[C@@H](CO)N(CCCF)S(=O)(=O)c1ccc(N)cc1)NC(=O)[C@@H](NC(=O)OC)C(c1ccccc1)c1ccccc1` [Example D15, N-{(1S,5S)-5-[[(4-aminophenyl)sulfonyl](3-fluoropropyl)amino]-1-ethyl-6-hydroxyhexyl}-Nα-(methoxycarbonyl)-β-phenyl-L-phenylalaninamide], for which the IC50 at wild-type HIV-1 protease (setting [2]) amounted to 0.268 nM. Also, in assay [1] (read-out: Spread - IC95), the IC95 worked out at 39 nM.

With `COC(=O)N[C@H](C(=O)N[C@H](CCC[C@@H](CO)N(CCC(C)C)S(=O)(=O)c1ccc(N)c(F)c1)C(C)C)C(c1ccccc1)c1ccccc1` [Example D16, N-{(1R,5S)-5-[[(4-amino-3-fluorophenyl)sulfonyl](3-methylbutyl)amino]-6-hydroxy-1-isopropylhexyl}-Nα-(methoxycarbonyl)-β-phenyl-L-phenylalaninamide], the IC50 at wild-type HIV-1 protease (setting [2]) amounted to 0.329 nM. Further, the IC95 in assay [1] (read-out: Spread - IC95) was determined as 152 nM.

`CC[C@@H](CCC[C@@H](CO)N(CCC(C)C)S(=O)(=O)c1ccc(N)c(Br)c1)NC(=O)[C@@H](NC(=O)OC)C(c1ccccc1)c1ccccc1` [Example D17, N-{(1S,5S)-5-[[(4-amino-3-bromophenyl)sulfonyl](3-methylbutyl)amino]-1-ethyl-6-hydroxyhexyl}-Nα-(methoxycarbonyl)-β-phenyl-L-phenylalaninamide]: at wild-type HIV-1 protease (setting [2]), the IC50 was 0.38 nM. The IC95 in assay [1] (read-out: Spread - IC95) amounted to 154 nM.

As for `COC(=O)N[C@H](C(=O)N[C@H](CCC[C@@H](CO)N(CCC(C)C)S(=O)(=O)c1ccc(N)cc1)C1CC1)C(c1ccccc1)c1ccccc1` [Example E1], half-maximal inhibition at wild-type HIV-1 protease (IC50) required 0.03 nM. Also, in assay [1] (read-out: Spread - IC95), the IC95 was found to be 11 nM.

As to `COC(=O)N[C@H](C(=O)N[C@H](CCC[C@@H](CO)N(CCC(C)C)S(=O)(=O)c1ccc(CO)c(F)c1)C1CC1)C(c1ccc(F)cc1)c1ccc(F)cc1` [Example E2, N-{(1R,5S)-1-cyclopropyl-5-[{[3-fluoro-4-(hydroxymethyl)phenyl]sulfonyl}(3-methylbutyl)amino]-6-hydroxyhexyl}-4-fluoro-β-(4-fluorophenyl)-Nα-(methoxycarbonyl)-L-phenylalaninamide], the IC50 on wild-type HIV-1 protease (setting [2]) came out at 0.017 nM. Besides, the IC95 in assay [1] (read-out: Spread - IC95) was determined as 39 nM.

Turning to `COC(=O)N[C@H](C(=O)N[C@H](CCC[C@@H](CO)N(CCC(C)C)S(=O)(=O)c1ccc(N)c(F)c1)C1CC1)C(c1ccccc1)c1ccccc1` [Example E3, N-{(1R,5S)-5-[[(4-amino-3-fluorophenyl)sulfonyl](3-methylbutyl)amino]-1-cyclopropyl-6-hydroxyhexyl}-Nα-(methoxycarbonyl)-β-phenyl-L-phenylalaninamide], the IC50 on wild-type HIV-1 protease (setting [2]) was found to be 0.057 nM. Moreover, in assay [1] (read-out: Spread - IC95), the IC95 stood at 11 nM.

For the compound `COC(=O)N[C@H](C(=O)N[C@H](CCC[C@@H](CO)N(CCC(C)C)S(=O)(=O)c1ccc(Cl)cc1)C1CC1)C(c1ccccc1)c1ccccc1` [Example E4, N-{(1R,5S)-5-[[(4-chlorophenyl)sulfonyl](3-methylbutyl)amino]-1-cyclopropyl-6-hydroxyhexyl}-Nα-(methoxycarbonyl)-β-phenyl-L-phenylalaninamide], on wild-type HIV-1 protease (setting [2]), the IC50 amounted to 0.201 nM. In addition, the IC95 in assay [1] (read-out: Spread - IC95) was 22 nM.

Regarding `COC(=O)N[C@H](C(=O)N[C@H](CCC[C@@H](CO)N(CCC(C)C)S(=O)(=O)c1ccc(C(C)=O)cc1)C1CC1)C(c1ccc(F)cc1)c1ccc(F)cc1` [Example E5, N-{(1R,5S)-5-[[(4-acetylphenyl)sulfonyl](3-methylbutyl)amino]-1-cyclopropyl-6-hydroxyhexyl}-4-fluoro-β-(4-fluorophenyl)-Nα-(methoxycarbonyl)-L-phenylalaninamide], the IC50 at wild-type HIV-1 protease (setting [2]) turned out to be 0.053 nM. The IC95 in assay [1] (read-out: Spread - IC95) was 47 nM.

On to `COC(=O)N[C@H](C(=O)N[C@H](CCC[C@@H](CO)N(CC(C)C)S(=O)(=O)c1ccc2ncsc2c1)C1CC1)C(c1ccccc1)c1ccccc1` [Example E6, N-{(1R,5S)-5-[(1,3-benzothiazol-6-ylsulfonyl)(isobutyl)amino]-1-cyclopropyl-6-hydroxyhexyl}-Nα-(methoxycarbonyl)-β-phenyl-L-phenylalaninamide], for which the IC50 at wild-type HIV-1 protease (setting [2]) was 0.352 nM. For the same compound, in assay [1] (read-out: Spread - IC95), the IC95 is 27 nM.

With `COC(=O)N[C@H](C(=O)N[C@H](CCC[C@@H](CO)N(CCC(C)C)S(=O)(=O)c1ccc(N)cc1)C1CC1)C(c1ccc(F)cc1)c1ccc(F)cc1` [Example E7, N-{(1R,5S)-5-[[(4-aminophenyl)sulfonyl](3-methylbutyl)amino]-1-cyclopropyl-6-hydroxyhexyl}-4-fluoro-β-(4-fluorophenyl)-Nα-(methoxycarbonyl)-L-phenylalaninamide], the IC50 on wild-type HIV-1 protease (setting [2]) worked out at 0.066 nM. The IC95 in assay [1] (read-out: Spread - IC95) was 39 nM.

In the case of `COC(=O)N[C@@H](Cc1ccccc1Cl)C(=O)N[C@H](CCC[C@@H](CO)N(CCC(C)C)S(=O)(=O)c1ccc2ncsc2c1)C1CC1` [Example E8, N-{(1R,5S)-5-[(1,3-benzothiazol-6-ylsulfonyl)(3-methylbutyl)amino]-1-cyclopropyl-6-hydroxyhexyl}-2-chloro-Nα-(methoxycarbonyl)-L-phenylalaninamide], the IC50 on wild-type HIV-1 protease (setting [2]) came out at 1.4 nM. Further, the IC95 in assay [1] (read-out: Spread - IC95) was determined as 195 nM.

In the case of `COC(=O)N[C@@H](Cc1cccc2ccccc12)C(=O)N[C@H](CCC[C@@H](CO)N(CCC(C)C)S(=O)(=O)c1ccc(N)cc1)C1CC1` [Example E9, methyl [(1S)-2-({(1R,5S)-5-[[(4-aminophenyl)sulfonyl](3-methylbutyl)amino]-1-cyclopropyl-6-hydroxyhexyl}amino)-1-(1-naphthylmethyl)-2-oxoethyl]carbamate], at wild-type HIV-1 protease (setting [2]), the IC50 stood at 0.354 nM. The IC95 in assay [1] (read-out: Spread - IC95) was determined as 117 nM.

With `CCCN([C@H](CO)CCC[C@H](C)NC(=O)[C@@H](NC(=O)OC)C(c1ccccc1)c1ccccc1)S(=O)(=O)c1ccc(N)cc1` [Example F2, N-{(1S,5S)-5-[[(4-aminophenyl)sulfonyl](propyl)amino]-6-hydroxy-1-methylhexyl}-Nα-(methoxycarbonyl)-β-phenyl-L-phenylalaninamide], on wild-type HIV-1 protease (setting [2]), the IC50 amounted to 0.028 nM. In addition, the IC95 in assay [1] (read-out: Spread - IC95 (nM)) came to 23 nM.

Turning to `CC[C@@H](CCC[C@@H](CO)N(CCC(C)C)S(=O)(=O)c1ccc(N)cc1)NC(=O)[C@H](Cc1ccccc1Br)NC(=O)OC` [Example F3, N-{(1S,5S)-5-[[(4-aminophenyl)sulfonyl](3-methylbutyl)amino]-1-ethyl-6-hydroxyhexyl}-2-bromo-Nα-(methoxycarbonyl)-L-phenylalaninamide], the IC50 on wild-type HIV-1 protease (setting [2]) is 0.196 nM. For the same compound, the IC95 in assay [1] (read-out: Spread - IC95) was 25 nM.

In the case of `COC(=O)N[C@H](C(=O)N[C@@H](C)CCC[C@@H](CO)N(CCCF)S(=O)(=O)c1ccc(N)cc1)C(c1ccccc1)c1ccccc1` [Example F4, N-{(1S,5S)-5-[[(4-aminophenyl)sulfonyl](3-fluoropropyl)amino]-6-hydroxy-1-methylhexyl}-Nα-(methoxycarbonyl)-β-phenyl-L-phenylalaninamide], on wild-type HIV-1 protease (setting [2]), the IC50 was found to be 0.055 nM. For the same compound, the 95% effect concentration (IC95) in assay [1] (read-out: Spread - IC95) was 65 nM.

The values above are taken from patent US20100093811A1 (priority 2007, published 2010).
